Our source for the TGI values is PubChem BioAssay (NCI).

Structures are written as SMILES.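 Compound exposure: 48 hours, 5 concentrations, 96-well plates. TGI denotes the concentration required for complete inhibition of growth.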 Bounds are passed on as bounds.

Test systems include NCI-H23 lung; UACC-257 melanoma; SW-620 colon; TK-10 renal; CCRF-CEM leukemia; SF-539 CNS; OVCAR-5 ovarian; SR leukemia; HCT-116 colon; SF-295 CNS; SK-MEL-28 melanoma; NCI-H226 lung; SN12C renal; A549 NSCLC; DU-145 prostate.
Holding throughout (assay): growth of human tumour cells (NCI), 48 h

Take `O=C1O/C(=C(\Br)c2cccc3ccccc23)c2ccccc21`: the TGI was above 55.8 µM in the experiment with NCI-H23 lung; above 56.1 µM in the experiment on UACC-257 melanoma; above 58.3 µM in the experiment on SW-620 colon; above 51.2 µM in the experiment on TK-10 renal; 46.1 µM in the experiment with CCRF-CEM leukemia; above 100 µM in the experiment on SF-539 CNS. Also, the TGI is above 54.9 µM with OVCAR-5 ovarian; 51.5 µM with SR leukemia; above 61.9 µM with HCT-116 colon; above 53.6 µM with SF-295 CNS; above 50.2 µM in the experiment on SK-MEL-28 melanoma; above 55.7 µM with NCI-H226 lung. For the same compound, the TGI in the experiment with SN12C renal stood at 47.2 µM; with A549 NSCLC, 35.9 µM.
As to `O=C(N=C1SCCN1C(=O)C(C(F)(F)F)C(F)(F)F)C(C(F)(F)F)C(F)(F)F`, the TGI with NCI-H23 lung, in the experiment with UACC-257 melanoma, in the experiment with SW-620 colon, with TK-10 renal, with CCRF-CEM leukemia and in the experiment with SF-539 CNS was above 100 µM in each case. Besides, the TGI with OVCAR-5 ovarian, in the experiment on SR leukemia, with HCT-116 colon, in the experiment with SF-295 CNS, in the experiment on SK-MEL-28 melanoma and in the experiment on NCI-H226 lung was above 100 µM each time. For the same compound, the TGI in the experiment with A549 NSCLC is above 100 µM.
For the compound `Cc1ccnc2[nH]c(-c3cccc(Cl)c3)cc(=O)c12`, the TGI in the experiment with NCI-H23 lung, with UACC-257 melanoma, with SW-620 colon, with TK-10 renal, with CCRF-CEM leukemia and in the experiment with OVCAR-5 ovarian was above 100 µM each time. Moreover, the TGI in the experiment on SR leukemia, in the experiment on SF-295 CNS, in the experiment with DU-145 prostate, with SK-MEL-28 melanoma, in the experiment with NCI-H226 lung and in the experiment on SN12C renal was above 100 µM in each case. Further, in the experiment on A549 NSCLC, the TGI is above 100 µM.
Regarding `COc1cc2c(c(OC)c1OC)-c1ccc(SC)c(=O)cc1[C@@H](OC(C)=O)CC2`, the TGI in the experiment with NCI-H23 lung was 0.194 µM; in the experiment with UACC-257 melanoma it was above 100 µM; in the experiment on SW-620 colon, above 100 µM; in the experiment with TK-10 renal, above 100 µM; with CCRF-CEM leukemia it was 0.0312 µM; in the experiment on SR leukemia, above 100 µM. Also, the TGI in the experiment on HCT-116 colon, in the experiment on DU-145 prostate, with SK-MEL-28 melanoma, in the experiment with SN12C renal and with A549 NSCLC was above 100 µM each time.
Take `COc1ccc(N2C(=Nc3ccccc3)SC(=N/S(=O)(=O)c3ccccc3)/C2=N\S(=O)(=O)c2ccccc2)cc1`: the TGI is 27.4 µM in the experiment on NCI-H23 lung; 73.1 µM in the experiment on UACC-257 melanoma; above 100 µM with SW-620 colon; 52.3 µM in the experiment on TK-10 renal; 46 µM with CCRF-CEM leukemia; 50.7 µM in the experiment with OVCAR-5 ovarian. Further, the TGI was found to be 40.4 µM with SR leukemia; 28.2 µM with HCT-116 colon; 33.9 µM with SK-MEL-28 melanoma; 56.8 µM in the experiment on NCI-H226 lung; 39.8 µM in the experiment on SN12C renal; 46.5 µM in the experiment with A549 NSCLC.
In the case of `CCOc1ccc(/C=C(\Cl)c2ccc(OC)c(OC)c2)cc1`, the TGI is above 100 µM in the experiment with NCI-H23 lung; 97.9 µM in the experiment on UACC-257 melanoma; above 100 µM in the experiment with SW-620 colon; above 100 µM with CCRF-CEM leukemia; above 100 µM in the experiment with SF-539 CNS; 91.4 µM in the experiment with SR leukemia. Further, the TGI in the experiment on HCT-116 colon is above 100 µM; with SF-295 CNS it was above 100 µM; with SK-MEL-28 melanoma it was above 100 µM; in the experiment with NCI-H226 lung, 74.8 µM; in the experiment on SN12C renal it was above 100 µM; in the experiment with A549 NSCLC it was above 100 µM.
As for `CCCCCC(=O)c1ccc2[nH]c3c(C)cc([N+](=O)[O-])c(C)c3c2c1`, the TGI with NCI-H23 lung, in the experiment with UACC-257 melanoma, in the experiment on SW-620 colon, with TK-10 renal, in the experiment with CCRF-CEM leukemia and with SF-539 CNS was above 100 µM in each case. Besides, the TGI with OVCAR-5 ovarian, in the experiment on SR leukemia, in the experiment with HCT-116 colon, with SF-295 CNS, in the experiment on SK-MEL-28 melanoma and with NCI-H226 lung was above 100 µM each time. Further, the TGI with SN12C renal and with A549 NSCLC was above 100 µM throughout.
With `C=C1C(=O)OC2(C)C3CCC(C3)C12` (stereo not given), the TGI with NCI-H23 lung was above 100 µM; in the experiment with SW-620 colon, above 100 µM; in the experiment with TK-10 renal, 85.7 µM; in the experiment on CCRF-CEM leukemia, above 100 µM; with SF-539 CNS, above 100 µM; in the experiment with OVCAR-5 ovarian, above 100 µM. For the same compound, the TGI with SR leukemia, with HCT-116 colon, with SF-295 CNS, in the experiment on SK-MEL-28 melanoma, with NCI-H226 lung and with SN12C renal was above 100 µM in each case. The compound further came in with a TGI with A549 NSCLC above 100 µM.
With `Cc1nc2c(n1C(C)(C)C)C(=O)c1ccccc1C2=O`, the TGI in the experiment on NCI-H23 lung, in the experiment on UACC-257 melanoma, with SW-620 colon, with TK-10 renal, with CCRF-CEM leukemia and in the experiment on SF-539 CNS was above 100 µM throughout. In addition, the TGI in the experiment on SR leukemia, with HCT-116 colon, in the experiment on SF-295 CNS, in the experiment with SK-MEL-28 melanoma, in the experiment on NCI-H226 lung and in the experiment on SN12C renal was above 100 µM throughout. The same compound showed a TGI in the experiment on A549 NSCLC above 100 µM.
